Measured values from patent US20240409585A1, “MACROCYCLIC IMMUNOMODULATORS” (priority 2021, published 2024).
Bridge positions count the residues as written; N and C are the ends. Square brackets hold non-standard residues; d marks the D form. Peptide text beside a SMILES is read from it. * marks the point of attachment. ξ: configuration not given here. Ala(morpholin-4-yl) = N[C@@H](CN1CCOCC1)C(=O)O; Phe(4-COOH) = N[C@@H](Cc1ccc(C(=O)O)cc1)C(=O)O; Bip = N[C@@H](Cc1ccc(-c2ccccc2)cc1)C(=O)O; Phe(3-Me) = Cc1cccc(C[C@H](N)C(=O)O)c1; 2Nal = N[C@@H](Cc1ccc2ccccc2c1)C(=O)O; Val(3-OH) = CC(C)(O)[C@H](N)C(=O)O; mTyr = N[C@@H](Cc1cccc(O)c1)C(=O)O; 3Pal = N[C@@H](Cc1cccnc1)C(=O)O; 4Pal = N[C@@H](Cc1ccncc1)C(=O)O; Cha = N[C@@H](CC1CCCCC1)C(=O)O; Cit = NC(=O)NCCC[C@H](N)C(=O)O; Ile(3ξ) = CCC(C)[C@H](N)C(=O)O; Thr(3ξ) = CC(O)[C@H](N)C(=O)O; Ala(CN) = N#CC[C@H](N)C(=O)O; Carboxymethyl = O=C(O)C*; NMeA = CN[C@@H](C)C(=O)O; Orn = NCCC[C@H](N)C(=O)O; Pra = C#CC[C@H](N)C(=O)O; Dab = NCC[C@H](N)C(=O)O

What follows are molecules tested against T1, PE-labeled human PD-L1-Ig binding to Jurkat cell line over-expressing human PD-1 (Jurkat-PD-1) (Homo sapiens, UniProt Q15116) (assay: Jurkat-PD-1 Cell Binding High-Content Screening Assay (CBA): Method 1). Details: Jurkat-PD-1 cells, PE-labeled PD-L1-Ig; μM; read-out: CBA Method 1 μM.
T1 construct: expressed in transfected cells; host or cells: Jurkat
T1 sequence (Q15116 25-288): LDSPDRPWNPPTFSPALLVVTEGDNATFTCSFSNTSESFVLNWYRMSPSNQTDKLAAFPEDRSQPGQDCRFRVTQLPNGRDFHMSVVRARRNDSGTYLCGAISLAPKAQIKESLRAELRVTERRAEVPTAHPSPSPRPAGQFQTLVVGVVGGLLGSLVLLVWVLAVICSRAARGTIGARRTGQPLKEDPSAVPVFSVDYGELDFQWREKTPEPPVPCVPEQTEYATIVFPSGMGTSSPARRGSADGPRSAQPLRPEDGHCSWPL
Work on `Cc1cccc(C[C@@H]2NC(=O)[C@H](CC(=O)O)NC(=O)[C@H](Cc3ccc(OCC(=O)O)cc3)NC(=O)[C@H](CN3CCOCC3)NC(=O)CSC[C@@H](C(=O)N[C@@H](CCN)C(N)=O)NC(=O)[C@H](CCCN)NC(=O)[C@H](C(C)C)NC(=O)[C@H](Cc3ccc4ccccc4c3)NC(=O)[C@H](CCN)NC(=O)[C@@H](CC(C)C)NC(=O)[C@H](C)N(C)C(=O)[C@H](CCC(N)=O)NC(=O)[C@H](Cc3ccc(-c4ccccc4)cc3)NC(=O)[C@H](Cc3ccc(C(=O)O)cc3)NC2=O)c1` [Example 5044] ({CH2CO}-[Ala(morpholin-4-yl)]Y(Carboxymethyl)D[Phe(3-Me)][Phe(4-COOH)][Bip]Q[NMeA][dL][Dab][2Nal]V[Orn]C[Dab]-NH2; thioether N-14) yielded an IC50 of 0.131 µM.

Same assay, conditions: Jurkat-hPD-1 cells, PE-labeled PD-L1-Ig 20 nM final; read-out: Jurkat HPDL1 PD1 IC50 (uM) (Method 1)
With `Cc1cccc(C[C@@H]2NC(=O)[C@H](CC(=O)O)NC(=O)[C@H](Cc3ccc(OCC(=O)O)cc3)NC(=O)[C@H](Cc3ccc(OCC(=O)O)cc3)NC(=O)CSC[C@@H](C(N)=O)NC(=O)[C@H](CC(=O)O)NC(=O)[C@H](C(C)C)NC(=O)[C@H](CC3CCCCC3)NC(=O)[C@H](CCN)NC(=O)[C@@H](CC(C)C)NC(=O)[C@H](C)N(C)C(=O)[C@H](Cc3ccc(OCC(=O)O)cc3)NC(=O)[C@H](Cc3ccc(-c4ccccc4)cc3)NC(=O)[C@H](Cc3ccc(OCC(=O)O)cc3)NC2=O)c1` [Compound 1654] ({CH2CO}-Y(Carboxymethyl)Y(Carboxymethyl)D[Phe(3-Me)]Y(Carboxymethyl)[Bip]Y(Carboxymethyl)[NMeA][dL][Dab][Cha]VDC-NH2; thioether N-14) the IC50 was 0.08 µM.
With `CC(C)C[C@@H]1NC(=O)[C@H](CCN)NC(=O)[C@@H](CC(C)C)NC(=O)[C@H](C)N(C)C(=O)[C@H](CCCNC(N)=O)NC(=O)[C@H](Cc2ccc(-c3ccccc3)cc2)NC(=O)[C@H](C(C)C)NC(=O)[C@H](Cc2c[nH]c3ccccc23)NC(=O)[C@H](CC(=O)O)NC(=O)[C@H](Cc2cccnc2)NC(=O)[C@H](CC(N)=O)NC(=O)CSC[C@@H](C(=O)N[C@@H](C)C(N)=O)NC(=O)[C@H]([C@@H](C)O)NC(=O)[C@H](C(C)C)NC1=O` [Compound 1318] ({CH2CO}-N[3Pal]DWV[Bip][Cit][NMeA][dL][Dab]LVTCA-NH2; thioether N-14) the IC50 was 0.02 µM.
For `CC(C)C[C@@H]1NC(=O)[C@H](Cc2c[nH]c3ccccc23)NC(=O)[C@H](CC(=O)O)NC(=O)[C@H](Cc2ccc(OCC(=O)O)cc2)NC(=O)[C@H](Cc2ccncc2)NC(=O)CSC[C@@H](C(=O)NCC(N)=O)NC(=O)[C@H](CO)NC(=O)[C@H](C(C)C)NC(=O)[C@H](CC(C)C)NC(=O)[C@H](CC(N)=O)NC(=O)[C@@H](CC(C)C)NC(=O)[C@H](C)N(C)C(=O)[C@H](C(C)C)NC(=O)[C@H](Cc2ccc(-c3ccccc3)cc2)NC1=O` [Compound 1551] ({CH2CO}-[4Pal]Y(Carboxymethyl)DWL[Bip]V[NMeA][dL]NLVSCG-NH2; thioether N-14), the IC50 was 0.01 µM.
Work on `CC(C)C[C@@H]1NC(=O)[C@H](CCN)NC(=O)[C@@H](CC(C)C)NC(=O)[C@H](C)N(C)C(=O)[C@H](CCCNC(=N)N)NC(=O)[C@H](Cc2ccc(-c3ccccc3)cc2)NC(=O)[C@H](C(C)C)NC(=O)[C@H](Cc2c[nH]c3ccccc23)NC(=O)[C@H](CC(=O)O)NC(=O)[C@H](Cc2ccc(C(=O)O)cc2)NC(=O)[C@H](Cc2cnc[nH]2)NC(=O)CSC[C@@H](C(=O)N[C@@H](C)C(N)=O)NC(=O)[C@H]([C@@H](C)O)NC(=O)[C@H](C(C)C)NC1=O` [Compound 1151] ({CH2CO}-H[Phe(4-COOH)]DWV[Bip]R[NMeA][dL][Dab]LVTCA-NH2; thioether N-14) yielded an IC50 of 0.04 µM.
Molecule `CCC(C)[C@@H]1NC(=O)[C@H](Cc2ccc(-c3ccccc3)cc2)NC(=O)[C@H](CC(C)C)NC(=O)[C@H](Cc2c[nH]c3ccccc23)NC(=O)[C@H](CC(=O)O)NC(=O)[C@H](Cc2ccc(OCC(=O)O)cc2)NC(=O)[C@H](C(C)O)NC(=O)CSC[C@@H](C(=O)N[C@@H](CC(N)=O)C(=O)O)NC(=O)[C@H](CC#N)NC(=O)[C@H](C(C)C)NC(=O)[C@H](CC(C)C)NC(=O)[C@H](CCN)NC(=O)[C@@H](CC(C)C)NC(=O)[C@H](C)N(C)C1=O` (stereo partly drawn) [Compound 2226] ({CH2CO}-[Thr(3ξ)]Y(Carboxymethyl)DWL[Bip][Ile(3ξ)][NMeA][dL][Dab]LV[Ala(CN)]CN-OH; thioether N-14) has an IC50 of 0.06 µM.
`C#CC[C@H](NC(=O)[C@@H](C)NC(=O)[C@@H]1CSCC(=O)N[C@@H](Cc2ccc(OCC(=O)O)cc2)C(=O)N[C@@H](Cc2ccc(C(=O)O)cc2)C(=O)N[C@@H](CC(=O)O)C(=O)N[C@@H](Cc2c[nH]c3ccccc23)C(=O)N[C@@H](CC(C)C)C(=O)N[C@@H](Cc2ccc(-c3ccccc3)cc2)C(=O)N[C@@H](C(C)C)C(=O)N(C)[C@@H](C)C(=O)N[C@H](CC(C)C)C(=O)N[C@@H](CCN)C(=O)N[C@@H](CC2CCCCC2)C(=O)N[C@@H](C(C)(C)O)C(=O)N[C@@H](CO)C(=O)N1)C(=O)O` [Compound 1941] ({CH2CO}-Y(Carboxymethyl)[Phe(4-COOH)]DWL[Bip]V[NMeA][dL][Dab][Cha][Val(3-OH)]SC[dA][Pra]-OH; thioether N-14) showed an IC50 of 0.01 µM.
Molecule `CCC(C)[C@@H]1NC(=O)[C@H](Cc2ccc(-c3ccccc3)cc2)NC(=O)[C@H](C(C)C)NC(=O)[C@H](Cc2c[nH]c3ccccc23)NC(=O)[C@H](CC(=O)O)NC(=O)[C@H](Cc2ccc(OCC(=O)O)cc2)NC(=O)[C@H](C(C)O)NC(=O)CSC[C@@H](C(=O)N[C@H](CC(N)=O)C(N)=O)NC(=O)[C@H](CO)NC(=O)[C@H](C(C)(C)O)NC(=O)[C@H](CC2CCCCC2)NC(=O)[C@H](CCN)NC(=O)[C@@H](CC(C)C)NC(=O)[C@H](C)N(C)C1=O` (stereo partly drawn) [Compound 2141] ({CH2CO}-[Thr(3ξ)]Y(Carboxymethyl)DWV[Bip][Ile(3ξ)][NMeA][dL][Dab][Cha][Val(3-OH)]SC[dN]-NH2; thioether N-14) has an IC50 of 0.02 µM.
Work on `Cc1cccc(C[C@@H]2NC(=O)[C@H](CC(=O)O)NC(=O)[C@H](Cc3ccncc3)NC(=O)[C@H](Cc3ccc(OCC(=O)O)cc3)NC(=O)CSC[C@@H](C(=O)N[C@@H](C)C(N)=O)NC(=O)[C@H](CO)NC(=O)[C@H](C(C)C)NC(=O)[C@H](CC(C)C)NC(=O)[C@H](CC(N)=O)NC(=O)[C@@H](CC(C)C)NC(=O)[C@H](C)N(C)C(=O)[C@H](C(C)C)NC(=O)[C@H](Cc3ccc(-c4ccccc4)cc3)NC(=O)[C@H](CC(C)C)NC2=O)c1` [Compound 1589] ({CH2CO}-Y(Carboxymethyl)[4Pal]D[Phe(3-Me)]L[Bip]V[NMeA][dL]NLVSCA-NH2; thioether N-14) yielded an IC50 of 0.03 µM.
`CC(C)C[C@@H]1NC(=O)[C@H](Cc2c[nH]c3ccccc23)NC(=O)[C@H](CC(=O)O)NC(=O)[C@H](Cc2cccc(O)c2)NC(=O)[C@H](Cc2ccccc2)NC(=O)CSC[C@@H](C(=O)N[C@@H](C)C(N)=O)NC(=O)[C@H](CO)NC(=O)[C@H](C(C)C)NC(=O)[C@H](CC(C)C)NC(=O)[C@H](CC(N)=O)NC(=O)[C@@H](C)NC(=O)[C@H](C)N(C)C(=O)[C@H](C(C)C)NC(=O)[C@H](Cc2ccc(-c3ccccc3)cc2)NC1=O` [Compound 1765] ({CH2CO}-F[mTyr]DWL[Bip]V[NMeA][dA]NLVSCA-NH2; thioether N-14) showed an IC50 of 0.04 µM.
